Data on one compound can be found in patent US12528792B2, “Sulfonamide compounds and the use thereof in the treatment of cancer” (TROBIO THERAPEUTICS PTY LTD, priority 2019, dated 2026).

Holding throughout (format): cell-based
The test system of one assay is PC3 (prostate) cells. Description: Anti-proliferative activity, Cell-Titre luminescent viability assay. The following applies: 72 h exposure, Cell-Titre luminescent reagent. A digest of the protocol:
(§1)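 Cells attached 24 h at 37° C., 5% CO2, then treated 72 h with compound at 0.3–100 μM or 0.1–30 μM. Viability read by Cell-Titre luminescence after 30 min reagent exposure, normalized to vehicle; EC50 from variable-slope sigmoidal nonlinear regression.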

Assay [1] relates to MIA PaCa-2 (pancreatic) cells. Described as above. Particulars: Homo sapiens, 72 h exposure, Cell-Titre luminescent reagent. A digest of the protocol: as §1
The next assay relates to A2780 (ovarian) cells. The description is as above. The following applies: Homo sapiens, 72 h exposure, Cell-Titre luminescent reagent. A digest of the protocol:
as §1

For another assay, the system named is A549 (NSCLC) cells. The assay is described as above. Particulars: Homo sapiens, 72 h exposure, Cell-Titre luminescent reagent. A digest of the protocol:
as §1

Assay [2] concerns Caco-2 (colorectal) cells. The assay is described as above. Particulars: Homo sapiens, 72 h exposure, Cell-Titre luminescent reagent. A digest of the protocol: as §1
For assay [3], the system named is SK-N-SH neuroblastoma cells. Description: Cytotoxicity assay, MTS viability. Particulars: Homo sapiens, 72 hours. A digest of the protocol:
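SK-N-SH cells, 2×10^3/well in DMEM with 10% FBS at 37 °C, treated with 1:2 compound series from 100 μM; MTS viability read after 72 hours. Viability normalised to vehicle control; EC50 taken from dose-response curves.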

The subject of assay [4] is A2780 ovarian cancer cells. The experiment in a line: Drug combination screen, 6x6 dose matrix, Bliss-independence synergy. On the set-up: key to Max. Synergy, Vinorelbine: Bliss synergy score; 0 = no synergy, negative = antagonism; highest in matrix; key to Total Synergy, Vinorelbine: sum of Bliss synergy scores across the dose matrix. The following applies: 72 h (26*: 96-well plate format). The procedure:
(§2) In vitro growth inhibition assays were performed as technical triplicate in two independent experiments and cell viability was assessed by Alamar Blue assay readout. Briefly, cells in logarithmic phase growth were seeded in 384-well plates in a 50 μL/well assay volume. Cells were seeded at 1,200 cells/well using a Multidrop 384 (Thermo Scientific) and allowed to adhere at 37° C. with 5% CO2, in a humidified atmosphere (LiCONIC incubator). After 24 hours incubation, test compounds, positive control (20 μM Thonzonium bromide, 100% kill) and vehicle only (0.4% DMSO) were added into wells of each assay plate using a Tecan HP D300 Digital Dispenser in technical triplicate under minimum light. Following 72 hours drug exposure, metabolic activity was detected by addition of 10% (v/v) Alamar Blue reagent to each assay well using a Multidrop Cambi (Thermo Scientific) and determined by measurement of fluorescence intensity (excitation 555 nm, emission 585 nm) using an EnSpire (Perkin Elmer) plate reader. Readings were performed at 0 hour (background) and after 6 hours alamar blue incubation at 37° C.
The two drugs in each combination matrix were dispensed using a Tecan HP D300 Digital Dispenser. Assays were performed in triplicate for each drug combination (test compound/vinorelbine and test compound/paclitaxel combinations). Synergistic drug interactions were calculated from the averaged cell viability data using the methodology described below.
Synergistic drug interactions were determined for each pa1rw1se drug combination by applying the Bliss-independence model that assumes independence of drug mechanisms. Prior to the analysis, percent cell viability (CV) for combination data were converted to fractional cell growth inhibition (GI) by the formula: […]
The Bliss additivism model was used to calculate a predicted combined response C to two single agents with responses A and B (using GI values), as follows:
The final score for any combination was reported as the difference between the value predicted by the additive model and the experimentally observed value, normalised to 100. Using GI values the maximum possible synergy score is 100, with 0 indicating no synergy and negative indicating possible antagonism. Scores were also reported as a “Max synergy” score, which is the highest individual synergy score for each combination matrix, and a “Total synergy” score, which was obtained by summation of each individual synergy score for the matrix.
The single agent IC50 values for the test compounds and their synergy scores in combination with vinorelbine and paclitaxel are presented in Table 4. The data is listed as IC50 mean from technical triplicates for two independent experiments. The averaged IC50 concentrations for the single agents from both runs were then used to generate the 6×6 dose matrices in the synergy experiment. Synergy scores for each drug combination were calculated by the Bliss-independence model. The maximum synergy and total synergy scores for each combination in A2780 cells are listed.

The test system of assay [5] is A2780 ovarian cancer cells. The experiment in a line: In vitro growth inhibition assay, Alamar Blue, single agent IC50. The following applies: Homo sapiens, 72 h drug exposure, Alamar Blue, 384-well (26*: 96-well plate format), read-out: Single-agent IC50. On the procedure: as §2
Each drug was tested as a 10-point concentration series with two-fold serial dilutions of each drug. The concentration series for compounds 6 and 8 was 100, 50, 25, 12.5, 6.25, 3.125, 1.563, 0.781, 0.391 and 0.195 μM and for compounds 24, 43 and 48 was 50, 25, 12.5, 6.25, 3.125, 1.563, 0.781, 0.391, 0.195 and 0.098 μM for the two independent experiments. The concentration series for vinorelbine and paclitaxel was 100, 50, 25, 12.5, 6.25, 3.125, 1.5625, 0.781, 0.391 and 0.195 nM. Thonzonium bromide (20 μM) and 0.4% DMSO were used as positive and vehicle controls, respectively. The IC50 value was calculated by derivation of the best-fit line using a sigmoidal dose response model (Activity Base Software Suite, IDES).
Activity Base software suite (IDES, version 8.3.0.175) was used for data analysis. Cell survival is expressed as a percentage of viable cells. IC50 concentrations were calculated by derivation of the best-fit line using a sigmoidal dose response model with technical triplicate data points.
For orientation: Resazurin is reduced to fluorescent resorufin, in cell work by metabolically active cells.

Assay [6] addresses T1, Tpm3.1-containing actin microfilaments in SK-N-SH neuroblastoma cells (Homo sapiens, UniProt P06753).
T1 construct: expressed in transfected cells; host or cells: SK-N-SH neuroblastoma cells
Description: Imaging and quantitation of Tpm3.1 mCherry and 488-Atto-Phalloidin actin filaments. Particulars: 24 hours post-treatment, two concentrations, FIG. 2 and FIG. 3. On the procedure: The ability of compounds 24, 26 and 143 to disrupt Tpm3.1-containing actin microfilaments was investigated in SK—N—SH neuroblastoma cells that express Tpm3.1 labelled with the mCherry fluorophore. Cells were seeded at 3×10^4 cells per well in a volume of 1000 μL complete media onto a 12 well plate containing 13 mm coverslips and left to plate down for 24 hours prior to treatment. Cells were then treated with DMSO and two concentrations of the test compounds. 24 hours post-treatment, cells were fixed with 16% paraformaldehyde (PBS) and stained with 488-Atto-Phalloidin to visualise the actin filament bundles. Single plane images were obtained using the Olympus IX83 epi-fluorescence microscope. Ten fields of view were collected for both Tpm3.1 mCherry fluorophore (FIG. 2) and 488-Atto-Phalloidin (FIG. 3) with each treatment condition.
Quantitation of either Tpm3.1 mCherry filaments or 488-Atto-Phalloidin filaments was performed using ImageJ 1.52p software (ImageJ, NIH). The mean pixel intensity from a cell was measured by using a line across the entire cell cytoplasmic area above or below the nuclear region. The line was made to cross the filament bundles at a 90° angle for the measurement rather than run along a single filament. A total of n=100 cells were measured from ten fields of view. […]

Each structure is given as a SMILES string.

T1 sequence (P06753 1-248 isoform P06753-2): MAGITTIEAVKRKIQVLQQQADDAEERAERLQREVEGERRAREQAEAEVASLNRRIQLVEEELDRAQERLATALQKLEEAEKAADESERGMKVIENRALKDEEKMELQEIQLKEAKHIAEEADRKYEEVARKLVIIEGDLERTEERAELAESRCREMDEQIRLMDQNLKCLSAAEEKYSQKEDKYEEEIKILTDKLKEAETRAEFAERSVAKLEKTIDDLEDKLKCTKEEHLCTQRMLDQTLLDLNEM

The IC50 is the concentration needed to halve the response being measured. Turning to `CCC(C)c1ccc(NC(=O)c2ccn(S(=O)(=O)c3ccc4[nH]ccc4c3)c2)cc1` (stereo not drawn) [Compound 24, 1-((1H-indol-5-yl)sulfonyl)-N-(4-(sec-butyl)phenyl)-1H-pyrrole-3-carboxamide], the IC50 was found to be 6.2 µM in the assay on PC3 (prostate) cells; 8.16 µM in assay [1]; 2.5 µM in the assay on A2780 (ovarian) cells; 6 µM with A549 (NSCLC) cells; 8.45 µM in [2]; 7.4 µM in assay [3]. In addition, the IC50 in assay [5] is 7.54 µM. For the same compound, the “Max. Synergy, Paclitaxel” value in [4] (combination with paclitaxel, Bliss score) was determined as 16.56. Besides, the “Total Synergy, Paclitaxel” value in assay [4] (combination with paclitaxel, sum of Bliss scores of the matrix) came to 111.86. Besides, in [4] (combination with vinorelbine, Bliss score), the “Max. Synergy, Vinorelbine” value turned out to be 14.27. The “Total Synergy, Vinorelbine” value in assay [4] (combination with vinorelbine, sum of Bliss scores of the matrix) is on record as 61.75. The “Disruption of Tpm3.1-containing actin microfilaments” value in assay [6] was “disrupt Tpm3.1-containing actin microfilaments in a dose-dependent manner”.
